From US20260102383A1, “LPAR1 Inhibitors” (AbbVie Inc., priority 2024, published 2026)
Like-named read-outs stand apart in the source and are kept apart here.

Biological target: T1, human LPAR1 (Homo sapiens, UniProt Q92633)
T1 construct: host or cells: TangoEDG2-bla U2OS cells
Assay: Arrestin assay (Arrestin Reporter EDG2-bla U2OS), inhibition of LPA-stimulated signal
Assay type: cell-based
Conditions: TangoEDG2-bla U2OS cells expressing human LPAR1, 0.25 μM LPA
Description: The inhibitory activity of compounds 15, 62, 77, 84 and 169 against LPAR1 was measured using an Arrestin assay in U2OS cells expressing human LPAR1.
FreeStyle media was warmed in a 37° C. water bath. Cryo-preserved vial(s) of TangoEDG2-bla U2OS cells were rapidly thawed in a 37° C. water bath. The thawed cells were added to FreeStyle media and cells were pelleted at 300×g for 5 minutes. The supernatant was aspirated, and cells were resuspended in FreeStyle media. Cell density was adjusted to 0.25×10^6 cells/mL. Cells (1×10^4 in 40 μL) were added to each well of Greiner 384 well black cell plate(s). Cell plate(s) were placed in a humidified 37° C./5% CO2 incubator for 18-20 hours. Dilutions of test compound were prepared at 6× final concentration; 12-point, 3-fold dilutions using HH Buffer (1×HBSS plus 20 mM HEPES). The 6× test compound was then added to the cell plate(s) at 10 μL/well. The final concentration ranged from 10 μM to 0.00006 μM. Cell plate(s) were incubated in a humidified 37° C./5% CO2 incubator for 1 hour. During the incubation, 6×LPA was prepared at 1.5 μM in 0.1% BSA HH Buffer. After the 1-hour incubation of test compound with cells, the LPA was added to the cell plate(s) at 10 μL/well (final LPA concentration of 0.25 μM). Cell plate(s) were returned to a humidified 37° C./5% CO2 incubator for 3 hours. The Development solution was made up per the LiveBLAzerFRET B/G kit protocol. The Development solution was added to the cell plate(s) at 10 μL/well. Cell plates were incubated in the dark at room temperature for 2 hours. Plate(s) were read on an Envision Plate Reader (Perkin Elmer) to read fluorescence; excitation at 409 nm with emission at 460 nm and 530 nm. Raw Data for analysis is the ratio of emission at 460 nm divided by emission 530 nm. The formula used to determine % Inhibition is as follows (1−(Raw Data−Low Average)/(High Average−Low Average))*100. Percent Inhibition was plotted to determine IC50 value with GraphPad Prism 9.5.0 software using Variable slope 4-parameter curve fit analysis.
Additional compounds of the present disclosure were synthesized in a manner similar to the compounds described above and understood by a person of ordinary skill in the art. The inhibitory activity of the compounds of the present disclosure against LPAR1 was measured using the above-referenced Arrestin Assay protocol.

[1] = read-out: Arrestin Reporter EDG2-bla U2OS Human Merged IC50

T1 sequence (Q92633 whole entry): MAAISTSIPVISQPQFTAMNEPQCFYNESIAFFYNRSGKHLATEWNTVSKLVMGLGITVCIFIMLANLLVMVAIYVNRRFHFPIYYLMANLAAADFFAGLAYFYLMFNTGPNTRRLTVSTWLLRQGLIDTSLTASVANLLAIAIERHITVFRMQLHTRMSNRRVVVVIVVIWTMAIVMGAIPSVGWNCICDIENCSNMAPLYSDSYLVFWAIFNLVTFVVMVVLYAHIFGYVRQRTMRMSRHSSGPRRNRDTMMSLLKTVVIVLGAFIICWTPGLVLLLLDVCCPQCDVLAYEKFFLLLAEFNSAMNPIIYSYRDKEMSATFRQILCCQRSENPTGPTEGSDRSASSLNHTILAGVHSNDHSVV

| Compound | IC50 [1] [nM] | IC50 (read-out: Arrestin Reporter EDG2-bla U2OS Human IC50) [nM] |
| --- | --- | --- |
| C=CC(=O)N1CCC(CN2CCC(C(=O)Nc3ccc(Cl)cc3OC(F)F)(n3nccc3C(C)C)CC2)(C(=O)O)CC1 [Compound 7, 4-[[4-[[4-chloro-2-(difluoromethoxy)phenyl]carbamoyl]-4-(5-isopropylpyrazol-1-yl)-1-piperidyl]methyl]-1-prop-2-enoyl-piperidine-4-carboxylic acid] | 50.8 |  |
| CC(=O)N1CCC(CN2CCC(C(=O)Nc3ccc(Cl)cc3OC(F)F)(n3nccc3C(C)C)CC2)(C(=O)O)CC1 [Compound 5, 1-acetyl-4-[[4-[[4-chloro-2-(difluoromethoxy)phenyl]carbamoyl]-4-(5-isopropylpyrazol-1-yl)-1-piperidyl]methyl]piperidine-4-carboxylic acid] | 87.3 |  |
| CC(C)c1ccnn1C1(C(=O)Nc2ccc(Cl)cc2OC(F)F)CCN(CC2(C(=O)O)CCCO2)CC1 (stereo not drawn) [Compound 13, 2-[[4-[[4-chloro-2-(difluoromethoxy)phenyl]carbamoyl]-4-(5-isopropylpyrazol-1-yl)-1-piperidyl]methyl] tetrahydrofuran-2-carboxylic acid] | 11.2 |  |
| CC(C)c1ccnn1C1(C(=O)Nc2ccc(Cl)cc2OC(F)F)CCN([C@H]2C[C@H](C(=O)O)C2)CC1 [Compound 62, (1r,3r)-3-[4-[[4-chloro-2-(difluoromethoxy)phenyl]carbamoyl]-4-(5-isopropylpyrazol-1-yl)-1-piperidyl]cyclobutanecarboxylic acid] |  | 51.5 |
| CC(C)c1ccnn1C1(C(=O)Nc2ccc(Cl)cc2OC(F)F)CCN(C[C@@H](C(=O)O)C2CCOCC2)CC1 (single isomer, unassigned) [Compound 14, (2.5)-3-[4-[[4-chloro-2-(difluoromethoxy)phenyl]carbamoyl]-4-(5-isopropylpyrazol-1-yl)-1-piperidyl]-2-tetrahydropyran-4-yl-propanoic acid] | 33.9 |  |
| CCOC(=O)N1CC[C@@](CN2CCC(C(=O)Nc3ccc(Cl)cc3OC(F)F)(n3nccc3C(C)C)CC2)(C(=O)O)C1 [Compound 55, (3S)-3-[[4-[[4-chloro-2-(difluoromethoxy)phenyl]carbamoyl]-4-(5-isopropylpyrazol-1-yl)-1-piperidyl]methyl]-1-ethoxycarbonyl-pyrrolidine-3-carboxylic acid] | 4.57 |  |
| CC(C)c1ccnn1C1(C(=O)Nc2ccc(Cl)cc2OC(F)F)CCN(CCC(C)(C)C(=O)O)CC1 [Compound 2, 4-[4-[[4-chloro-2-(difluoromethoxy)phenyl]carbamoyl]-4-(5-isopropylpyrazol-1-yl)-1-piperidyl]-2,2-dimethyl-butanoic acid] | 50.3 |  |
| CC(C)C(=O)N1CCC(CN2CCC(C(=O)Nc3ccc(Cl)cc3OC(F)F)(n3nccc3C(C)C)CC2)(C(=O)O)CC1 [Compound 75, 4-[[4-[[4-chloro-2-(difluoromethoxy)phenyl]carbamoyl]-4-(5-isopropylpyrazol-1-yl)-1-piperidyl]methyl]-1-(2-methylpropanoyl)piperidine-4-carboxylic acid] | 32.7 |  |
| CC(C)c1ccnn1C1(C(=O)Nc2ccc(Cl)cc2OC(F)F)CCN(C[C@@]2(C(=O)O)CCCCO2)CC1 (single isomer, unassigned) [Compound 38] | 18.8 |  |
| CC(C)c1ccnn1C1(C(=O)Nc2ccc(Cl)cc2OC(F)F)CCN(C2CC(C(=O)O)C2)CC1 (stereo not drawn) [Compound 46, 3-[4-[[4-chloro-2-(difluoromethoxy)phenyl]carbamoyl]-4-(5-isopropylpyrazol-1-yl)-1-piperidyl] cyclobutanecarboxylic acid] | 62.7 |  |
| CCOC(=O)N1CC(CN2CCC(C(=O)Nc3ccc(Cl)cc3OC(F)F)(n3nccc3C(C)C)CC2)(C(=O)O)C1 [Compound 97, 3-[[4-[[4-chloro-2-(difluoromethoxy)phenyl]carbamoyl]-4-(5-isopropylpyrazol-1-yl)-1-piperidyl]methyl]-1-ethoxycarbonyl-azetidine-3-carboxylic acid] | 122 |  |

Results, then the molecule that gave them:

| IC50 [1] [nM] | IC50 (read-out: Arrestin Reporter EDG2-bla U2OS Human IC50) [nM] | Compound |
| --- | --- | --- |
| 31.9 |  | CC(C)c1ccnn1C1(C(=O)Nc2ccc(Cl)cc2OC(F)F)CCN([C@H]2C[C@@]3(C[C@@H]3C(=O)O)C2)CC1 [Compound 127, (1S,3r,5R)-5-[4-[[4-chloro-2-(difluoromethoxy)phenyl]carbamoyl]-4-(5-isopropylpyrazol-1-yl)-1-piperidyl]spiro[2.3] hexane-2-carboxylic acid] |
| 123 |  | COC1CN([C@@H](CN2CCC(C(=O)Nc3ccc(Cl)cc3OC(F)F)(n3nccc3C(C)C)CC2)C(=O)O)C1 [Compound 178, (2S)-3-[4-[[4-chloro-2-(difluoromethoxy)phenyl]carbamoyl]-4-(5-isopropylpyrazol-1-yl)-1-piperidyl]-2-(3-methoxyazetidin-1-yl)propanoic acid] |
| 78.5 |  | CCC(=O)N1CC[C@@](CN2CCC(C(=O)Nc3ccc(Cl)cc3OC(F)F)(n3nccc3C(C)C)CC2)(C(=O)O)C1 [Compound 100, (3S)-3-[[4-[[4-chloro-2-(difluoromethoxy)phenyl]carbamoyl]-4-(5-isopropylpyrazol-1-yl)-1-piperidyl]methyl]-1-propanoyl-pyrrolidine-3-carboxylic acid] |
| 32.1 |  | CCOC(=O)N1CCC(CN2CCC(C(=O)Nc3ccc(Cl)cc3OC(F)F)(n3ncc(OC)c3C(C)C)CC2)(C(=O)O)CC1 [Compound 99, 4-[[4-[[4-chloro-2-(difluoromethoxy)phenyl]carbamoyl]-4-(5-isopropyl-4-methoxy-pyrazol-1-yl)-1-piperidyl]methyl]-1-ethoxycarbonyl-piperidine-4-carboxylic acid] |
| 86.9 |  | CC(C)c1ccnn1C1(C(=O)Nc2ccc(Cl)cc2OC(F)F)CCN(C[C@@H](C(=O)O)N2C[C@@H](C)O[C@H](C)C2)CC1 [Compound 160, (2S)-3-[4-[[4-chloro-2-(difluoromethoxy)phenyl]carbamoyl]-4-(5-isopropylpyrazol-1-yl)-1-piperidyl]-2-[(2R,6R)-2,6-dimethylmorpholin-4-yl]propanoic acid] |
| 17.9 |  | COC[C@H](CN1CCC(C(=O)Nc2ccc(Cl)cc2OC(F)F)(n2ncc(Cl)c2C(C)C)CC1)C(=O)O [Compound 205, (2S)-2-[[4-[[4-chloro-2-(difluoromethoxy)phenyl]carbamoyl]-4-(4-chloro-5-isopropyl-pyrazol-1-yl)-1-piperidyl]methyl]-3-methoxy-propanoic acid] |
| 53.7 |  | CC(C)c1ccnn1C1(C(=O)Nc2ccc(Cl)cc2OC(F)F)CCN([C@H]2CO[C@@H](C(=O)O)C2)CC1 [Compound 139, (2R,4R)-4-[4-[[4-chloro-2-(difluoromethoxy)phenyl]carbamoyl]-4-(5-isopropylpyrazol-1-yl)-1-piperidyl]tetrahydrofuran-2-carboxylic acid] |
| 55.8 |  | CC(C)c1ccnn1C1(C(=O)Nc2ccc(Cl)cc2OC(F)F)CCN([C@H]2C[C@](C(=O)O)(C(F)(F)F)C2)CC1 [Compound 108, (1r,3r)-3-[4-[[4-chloro-2-(difluoromethoxy)phenyl]carbamoyl]-4-(5-isopropylpyrazol-1-yl)-1-piperidyl]-1-(trifluoromethyl)cyclobutanecarboxylic acid] |
| 15.6 |  | CC(C)c1ccnn1C1(C(=O)Nc2ccc(Cl)cc2OC(F)F)CCN(CC(CC#N)C(=O)O)CC1 (stereo not drawn) [Compound 146, 2-[[4-[[4-chloro-2-(difluoromethoxy)phenyl]carbamoyl]-4-(5-isopropylpyrazol-1-yl)-1-piperidyl]methyl]-3-cyano-propanoic acid] |
| 32.2 |  | C=C(CN1CCC(C(=O)Nc2ccc(Cl)cc2OC(F)F)(n2nccc2C(C)C)CC1)C(=O)O [Compound 143, 2-[[4-[[4-chloro-2-(difluoromethoxy)phenyl]carbamoyl]-4-(5-isopropylpyrazol-1-yl)-1-piperidyl]methyl]prop-2-enoic acid] |
| 27.7 |  | CC(C)c1ccnn1C1(C(=O)Nc2ccc(Cl)cc2OC(F)F)CCN([C@H]2C[C@](C(=O)O)(C(F)F)C2)CC1 [Compound 221] |
| 134 |  | COC(=O)N[C@]1(C(=O)O)C[C@@H](N2CCC(C(=O)Nc3ccc(Cl)cc3OC(F)F)(n3nccc3C(C)C)CC2)C1 [Compound 131] |
| 122 |  | CC(C)c1ccnn1C1(C(=O)Nc2ccc(Cl)cc2OC(F)F)CCN(C[C@]2(C(=O)O)CC[C@](C)(O)CC2)CC1 [Compound 175, (1r,4r)-1-[[4-[[4-chloro-2-(difluoromethoxy)phenyl]carbamoyl]-4-(5-isopropylpyrazol-1-yl)-1-piperidyl]methyl]-4-hydroxy-4-methyl-cyclohexanecarboxylic acid] |
